# Results taken from patent US12264163B2, “Compounds and methods for treating fibrotic pathologies” (Mayo Foundation for Medical Education and Research, priority 2019, dated 2025).
# Legend:
# YAP/TAZ [1] = assay: YAP/TAZ nuclear localization in IMR-90 and other fibroblasts / mesenchymal cells (immunofluorescence); type: cell-based, human; settings: for YAP/TAZ nuclear localization: fibroblasts / mesenchymal cells on plastic, 2 hours
# [2] = test system: bile duct ligation (BDL)-mediated fibrosis; assay: Bile duct ligation model of liver fibrosis; type: in vivo, mouse; settings: BDL mice, DHX 5 mg/kg i.p. daily Day 7 for 14 days
# Experimental: Bile Duct Ligation: BDL was performed as previously described. Briefly, 8-10 weak old female C57BL/6N underwent either BDL or sham surgery. Mice were anesthetized on Day 0 following IACUC protocol, and the bile duct was ligated using sterile 3/0 silk ligatures. Sham surgery was performed by passing a silk ligature under the bile duct. Starting on Day 7, DHX (5 mg/kg) or vehicle control was administered everyday intraperitoneally (i.p.) for 14 days. Following the final DHX treatment, mice were sacrificed and the livers harvested for analysis of fibrosis.
# Histological Scoring: Five μm thick sections were cut from Paraffin embedded lung tissues, and the sections were stained either with hematoxylin and eosin (H&E) or with Masson's Trichrome stain kit (Abcam). […] The severity of interstitial and peribronchiolar lung immature and mature fibrosis was estimated on a numerical scale according to Ashcroft et al. For scoring purposes, all H&E stained slides were systematically scanned at 100× magnification and successive 100× fields were scored. […] The predominant score for each field was recorded. The mean of all scores was calculated for each case. Liver trichrome stained sections were computationally measured using Image J software. […]
# Hydroxyproline: Hydroxyproline content was measured using a hydroxyproline assay kit (Biovision) according to the manufacture's instruction with slight modification. […]
# YAP/TAZ [3] = assay: YAP/TAZ nuclear localization in IMR-90 and other fibroblasts / mesenchymal cells (immunofluorescence); type: cell-based, human; settings: cells with lower DRD1 and DRD5 expression than IMR-90
smiles,measurement,setting,value
Oc1cc2c(cc1O)[C@H]1c3ccccc3CN[C@@H]1CC2 (racemic) [Dihydrexidine],YAP/TAZ nuclear localization stimulated by GPCR ligands,"YAP/TAZ [1]; confluent fibroblasts, endothelin-1, lysophosphatidic acid, serotonin, DHX 10 μM",blocked nuclear localization of YAP/TAZ
same,YAP/TAZ nuclear localization,YAP/TAZ [1],reduced nuclear localization of YAP/TAZ
same,YAP/TAZ nuclear localization,YAP/TAZ [1]; listed as DHX,effective at inhibiting YAP/TAZ nuclear localization
same,"potency of inhibition of YAP/TAZ nuclear localization, normal vs IPF lung fibroblasts",YAP/TAZ [1]; normal lung fibroblasts vs those from a patient with IPF,equally potent
same,collagen deposition (hydroxyproline),[2],trend toward reduced collagen deposition
same,histological fibrosis (trichrome),[2],significantly improved histological fibrosis
same,YAP/TAZ nuclear localization in mesenchymal cells derived from uterine fibroids,YAP/TAZ [3],marginal inhibition of YAP/TAZ nuclear localization
